Earlier results on four compounds are cited in US8278351B2, “Natural marine source phospholipids comprising polyunsaturated fatty acids and their applications” (priority 2001, dated 2012).

Data set [1] deals with panic disorder. As to conditions: four weeks.
Data set [2] relates to Obsessive Compulsive Disorder. As to conditions: week six, compared to placebo period.
Data set [3] relates to depression. The following applies: 12 grams daily; placebo 0.6+/−10.
For data set [4] the following is noted: high-dose inositol.
The subject of data set [5] is Alzheimer's Disease.
Data set [6] deals with breast, ovarian, and lung cancer cells, mesothelioma cells.
Data set [7] deals with cancer cells. As to conditions: in vitro.
The test system of data set [8] is HL60 leukemic cells.
Data set [9] concerns Alzheimer's Disease. The following applies: 300 mg. per day for six weeks, 35 patients.
Data set [10] has as its system memory impairment. The following applies: 300 mg. daily, three months.
In data set [11] the test system is cognitive decline. As to conditions: 300 mg. per day for six months, versus placebo.
The subject of data set [12] is mitochondrial DNA. As to conditions: treated group versus control; brain and cochlea.
Data set [13] deals with mitochondrial membrane potentials. As to conditions: experimental group, peripheral blood.
Data set [14] concerns age-related hearing loss.

On to `O[C@H]1[C@H](O)[C@@H](O)[C@H](O)[C@@H](O)[C@H]1O` [inositol], for which the “frequency and severity of panic attacks and severity of agoraphobia” value in data set [1] (versus placebo) is “declined significantly more after inositol than after placebo”. Also, the “panic attacks after treatment” value in [1] (decrease from 10 attacks per week, placebo 10 to 6) is listed as 3 per week. Moreover, the “improvement in OCD” value in data set [2] is listed as “significant improvement”. Further, the “improvement in depression as ranked by the Hamilton Depression Rating Scale” value in data set [3] is 33.4+/−6. Besides, the “increase of CSF levels of inositol” value in [4] is ≤ 70%. Besides, the “CAMCOG subscales language and orientation” value in [5] (only two of the eight subscales) is given as “significant improvement”. Further, the “total CAMCOG score after inositol” value in data set [5] (six grams inositol daily, four weeks) is 40.09+/−24.54. Further, in data set [5] (six grams inositol daily, baseline), the “total CAMCOG score, baseline” value is reported as 31.36+/−20.90.

Regarding Phosphatidylcholine, in [6], the “difference in sensitivity between normal and tumor cells” value is ≤ 5 fold. In data set [7], the “cytotoxicity to cancer cells” value is on record as “selectively cytotoxic”. Also, the “dosage tolerated by normal cells relative to leukemic cells” value in data set [8] (24 hours incubation) is 4 times. For the same compound, the “inhibition of HL60 leukemic cells” value in [8] (versus normal human marrow cells) is reported as “inhibit HL60 leukemic cells at a dosage that has no effect on normal human marrow cells”.

With Phosphatidylserine [PS], the “improvement in Alzheimer's patients” value in data set [9] is listed as “significant improvement”. For the same compound, the mental gain in data set [10] is on record as 12 years. Also, the memory and learning entry in [11] is reported as “significantly improved”.

In the case of Polyunsaturated phosphatidylcholine, the “mitochondrial DNA damage” value in data set [12] is given as “less mitochondrial DNA damage”. In data set [13] (beginning of the study), the “mean fluorescence intensity (MFI), beginning of the study” value is listed as 3165. For the same compound, in [13] (end of the study (six months)), the “mean fluorescence intensity (MFI), end of the study” value is 2990. The “preservation of hearing at all frequencies (3, 6, 9, 12 and 18 kHz)” value in data set [14] (300 mg/kg/day oral diet, four and six months of treatment) is given as “statistically significant preservation of hearing”. Also, the “overall effect on decline in hearing” value in data set [14] (300 mg/kg/day, p<0.005 versus control) is “statistically significant protective effect”.
